How the values were obtained:
A549 cells = experiment: Western blotting of LPS-induced inflammatory cytokine/signaling proteins, A549 cells; type: cell-based, human; details: LPS 5 μg/ml, peptide 10, 50, 100, 500 μM, 24 hours, Western blot (FIG. 4a, 4b)
Method: A549 cells (human alveolar basal epithelial cells) were seeded at 3×10^5 cells/well in a 6-well plate and used in the experiment. After culturing for 1 day with a culture medium containing 10% FBS, the culture medium was replaced with a culture medium without containing FBS to induce starvation for 4 hours. Cells of a normal group without being treated with any substances, a group treated with LPS (5 μg/ml) (Sigma Aldrich) (negative control group), groups treated with LPS (5 μg/ml) and the peptide of Production Example 1 (10, 50, 100, 500 μM), and a group treated with LPS (5 μg/ml) and 10 μM of Dexamethasone (DEX) (positive control group) were treated with active substances and drugs respectively and then cultured for 24 hours. The cultured cells of each treatment group and control group were lysed by adding a lysis buffer, and then centrifugation was carried out at 4° C. at 12,000 rpm for 30 minutes to obtain proteins, which were subsequently quantified using a BCA Protein Assay kit (Sigma). The proteins were subjected to SDS-PAGE (sodium dodecyl sulfate-polyacrylamide gel electrophoresis) and then subjected to electrotransfer to a membrane. The membrane to which the proteins were attached was treated with 5% skim milk for blocking and then subjected to a reaction with a primary antibody overnight at 4° C. After washing with PBS-T, the membrane was subjected to a reaction with a secondary antibody at room temperature for 1 hour, washed again with PBS-T, and then visualized by a Western detection reagent (Elpis Biotech, Daejeon, Korea) using Gel Doc (Bio-Rad, Hercules, CA, USA). The antibodies used in the experiment are as follows. An Anti-IL-1β antibody: (Cell signaling technology (CST), USA), an anti-IL-6 antibody: (Santa Cruz Biotechnology, USA), an anti-COX2 antibody: (Santa Cruz Biotechnology, USA), an anti-Phospho-PI3K antibody: (Cell signaling technology (CST), USA), an anti-Phospho-AKT antibody: (Cell signaling technology (CST), USA), an anti-Phospho-ERK antibody: (Cell signaling technology (CST), USA), and an anti-β-Actin antibody: (Santa Cruz Biotechnology, USA).

MRC-5 cells = experiment: Inhibition of fibrosis gene expression induced by LPS, RT-PCR, MRC-5 cells; type: cell-based; details: 5 μg/ml LPS, peptide 10, 50, 100, 500 μM, 3 hours, RT-PCR (FIG. 6)
Method: MRC-5 cells (lung fibroblast cells) were seeded at 2×10^5 cells/well in a 12-well plate and used in the experiment. After culturing for 1 day with a culture medium containing 10% FBS, the culture medium was replaced with a culture medium without containing FBS to induce starvation for 4 hours. Cells of a normal group without being treated with any substances, a group treated with 5 μg/ml of LPS (Sigma Aldrich) (negative control group), groups treated with 5 μg/ml of LPS and the peptide of Production Example 1 (10, 50, 100, 500 μM), and a group treated with 5 μg/ml of LPS and 10 μM of Dexamethasone (DEX) (positive control group) were treated with the above-described active substances and drugs respectively, and then RNA was extracted after 3 hours to carry out RT-PCR. RNA was extracted from MRC-5 cells using an easy-BLUE™ Total RNA extraction kit (Qiagen, Germany). The extracted RNA was converted into cDNA using RT-PCR premix (iNtRON Biotechnology, Seongnam, Korea). After preparing a reaction mixture with PCR premix (iNtRON Biotechnology, Seongnam, Korea) and primers for each gene, PCR was carried out using a PCR machine (Eppendorf, Germany). Next, the mRNA expression pattern was determined by agarose gel electrophoresis.

BALB/c mice = experiment: LPS-induced acute lung inflammation model, cell counts in bronchoalveolar lavage fluid; type: in vivo; details: BALB/c female mice, LPS 10 μg intranasal, peptide 0.5 mg, 1 mg intranasal 1 hour after LPS, 24 hours (FIG. 10a, 10b)
Method: BALB/c mice (Female/7W) were used in animal experiments, and an acute lung inflammation model was established by injection of LPS. As shown in [Table 5] below, 7-week-old BALB/c female mice were divided into 5 groups of 5 mice each, and then the experiment was carried out. On the 1st day, LPS (10 μg/50 μl/mouse) was administered intranasally to the G2 to G5 groups. 1 hour after LPS administration, the G3 and G4 groups were subjected to intranasal administration with the peptide of Production Example 1 (0.5 mg, 1 mg), and the G5 positive control group was subjected to intraperitoneal administration with Dexamethasone (100 μg). 24 hours after the administration of the active substance and the drug, the mice were sacrificed to obtain the bronchoalveolar lavage fluid and the lung tissue, which were used in the next analysis.
After anesthetizing the mouse, the treatment area was disinfected with 70% ethanol. […] The separated cells were resuspended in 0.5 ml of PBS, subsequently diluted with trypan blue solution at a 1:1 ratio, and then the total number of cells was counted using a hematocytometer. […] After staining, cells were observed and counted through a microscope, and then the number of immune cells with respect to the total number of cells was calculated to show the results as a graph.

[1] = BLM-induced pulmonary fibrosis model, body weight change; type: in vivo; details: BALB/c male mice with BLM-induced pulmonary fibrosis, peptide 1 mg/mouse intranasal three times a week for 14 days from 7th day (FIG. 13a)
Method: As shown in [Table 6] below, 8-week-old BALB/c male mice were divided into 4 groups of 5 mice each. On the 1st day, a Bleomycin solution ([…]/50 μl/mouse) was administered through the oropharynx to carry out one time of induction with BLM. Then, from the 7th day, the peptide of Production Example 1 (1 mg/mouse) was administered intranasally three times a week for 14 days, and Pirfeninone (2 mg/mouse) for a positive control group was administered orally three times a week for 14 days. On the 21st day of the induction with BLM, mice were sacrificed to obtain the bronchoalveolar lavage fluid and the lung tissue, which were used in the next analysis.

KYLLVHRPYYRR [peptide of Production Example 1]
expression of COX2 (protein) (A549 cells): decreased the expression levels of proteins in a concentration-dependent manner | expression of IL-1β (protein) (A549 cells): decreased the expression levels of proteins in a concentration-dependent manner | expression of IL-6 (protein) (A549 cells): decreased the expression levels of proteins in a concentration-dependent manner | expression of Phospho-AKT (A549 cells): decreased the expression levels of proteins in a concentration-dependent manner | expression of Phospho-ERK (A549 cells): decreased the expression levels of proteins in a concentration-dependent manner | expression of Phospho-PI3K (A549 cells): decreased the expression levels of proteins in a concentration-dependent manner | expression level of Collagen 1A1 gene (MRC-5 cells): decreases again the expression levels of the α-SMA and Collagen 1A1 genes in a concentration-dependent manner | expression level of α-SMA gene (MRC-5 cells): decreases again the expression levels of the α-SMA and Collagen 1A1 genes in a concentration-dependent manner | number of macrophages in bronchoalveolar lavage fluid (BALB/c mice): not increased or decreased | number of neutrophils in bronchoalveolar lavage fluid (BALB/c mice): significantly reduced the increased number of neutrophils in a concentration-dependent manner | body weight [1]: recovered again

From patent publication US20250213649A1, “PEPTIDE HAVING ANTI-INFLAMMATORY AND ANTI-FIBROTIC ACTIVITIES AND USE THEREOF” (CAREGEN CO., LTD., priority 2022, published 2025)
